The results in this text go back to patent US9718812B2, “Substituted thiazole or oxazole P2X7 receptor antagonists” (Axxam S.P.A., priority 2014, dated 2017).

In assay [1] the target is P2X7 receptor (Homo sapiens (Human), UniProt Q99572). As to the kind of experiment: YO-PRO-1 Uptake Assay (large pore form, Bz-ATP stimulated). The format is cell-based. Conditions: HEK-293 cells stably transfected with P2X7 receptor; Bz-ATP EC80 (30 μM); 5 μM YO-PRO-1. The source says:
YO-PRO®-1 is a fluorescent DNA-binding dye with a MW of 374 Da (Molecular Probes®, cat. Y3603). This method is based upon the presumed ability of YO-PRO®-1 to enter through the dilated or “large pore form” of P2X7 receptor and to bind to intracellular DNA whereupon it increases many fold its fluorescence intensity. The dye has an absorption spectrum compatible with excitation at 488 nm by argon laser sources and its emission wavelength is in the range of 515-575 nm. The aim of this assay was to validate the interaction of antagonists with P2X7 receptor using an alternative readout to Ca^2+-sensitive fluorescent dyes.
HEK-293 cells stably transfected with P2X7 receptor were seeded overnight in growth medium at 20,000 cells/well in 384-well plate. 24 hours later, the medium was removed, the cells were washed with Low Divalent Cation Assay Buffer (0.3 mM Ca2+ and 0 mM Mg2+) and then pre-loaded with 20 μL/w of 5 μM YO-PRO®-1 dye. […] fluorescence measurement immediately started. Then, 10 μL/w of test compounds and reference antagonist A438079 at 3×-concentration were injected with the […] and the kinetic response over a period of five minutes was monitored. A second injection of 10 μL/w of 3× Bz-ATP EC80 (30 μM) was performed with the […] and the signal of the emitted fluorescence was recorded for additional 60 minutes. All the experiment was carried out with a Low Divalent Cation Assay Buffer (0.3 mM Ca^2+ and 0 mM Mg^2+).
The effect of the test compounds was measured as percent inhibition vs the reference antagonist and IC50 values were calculated accordingly.

The target in assay [2] is P2X7 receptor (hP2X7) (Homo sapiens (Human), UniProt Q99572). As to the kind of experiment: Screen Quest Fluo-8 No Wash Calcium Assay (Bz-ATP-induced Ca2+ influx, FLIPR TETRA). Conditions: HEK-293 cells stably transfected with P2X7 receptor, Fluo-8 calcium, Low Divalent Cation Assay Buffer. Type of assay: cell-based. As for the experimental part: Extracellular binding of Bz-ATP to P2X7 receptor opens the channel and allows Ca2+ influx into the cells. This Ca2+ entry was measured in HEK-293 cells stably transfected with P2X7 receptor using Screen Quest™ Fluo-8 No Wash Calcium Assay Kit (AAt Bioquest®, cat. 36316). Once inside the cell, the lipophilic blocking groups of Fluo-8 are cleaved by non-specific cell esterases, resulting in a negatively-charged fluorescent dye that stays inside cells. Its fluorescence increases upon binding to calcium. When HEK-293/P2X7 cells are stimulated with Bz-ATP, Ca2+ enters the cells and the fluorescence of Fluo-8 NW increases. The dye has an absorption spectrum compatible with excitation at 488 nm by argon laser sources and its emission wavelength is in the range of 515-575 nm.
HEK-293 cells stably transfected with P2X7 receptor were seeded overnight in growth medium at 10,000 to 20,000 cells/well in 384-well plate. 24 hours later, the medium was removed and the cells were pre-loaded at RT for 1 hour with 20 μL/w of Fluo-8 NW. Then 10 μL/w of test compounds and reference antagonist A438079 at 3×-concentration were injected with the […] and the kinetic response over a period of five minutes was monitored.

P2X7 receptor, sequence (Q99572 whole entry): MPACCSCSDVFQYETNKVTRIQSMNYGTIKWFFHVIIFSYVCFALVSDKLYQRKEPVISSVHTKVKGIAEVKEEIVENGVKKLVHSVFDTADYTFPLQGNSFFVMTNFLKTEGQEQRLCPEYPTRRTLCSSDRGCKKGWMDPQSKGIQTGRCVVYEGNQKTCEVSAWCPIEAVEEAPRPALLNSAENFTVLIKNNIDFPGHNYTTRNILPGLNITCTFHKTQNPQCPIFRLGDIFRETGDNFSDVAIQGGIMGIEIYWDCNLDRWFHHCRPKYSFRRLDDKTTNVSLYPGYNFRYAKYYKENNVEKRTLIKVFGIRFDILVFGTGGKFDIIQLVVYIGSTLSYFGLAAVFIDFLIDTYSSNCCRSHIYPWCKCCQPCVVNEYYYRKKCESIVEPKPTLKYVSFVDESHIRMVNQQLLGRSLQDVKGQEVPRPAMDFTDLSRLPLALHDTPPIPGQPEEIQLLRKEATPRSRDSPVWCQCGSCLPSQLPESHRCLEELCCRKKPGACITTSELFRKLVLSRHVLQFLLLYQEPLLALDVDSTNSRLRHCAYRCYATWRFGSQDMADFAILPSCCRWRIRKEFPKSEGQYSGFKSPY
P2X7 receptor (hP2X7), sequence (Q99572 whole entry): as above

A word on the IC50: it is the concentration that gives 50% inhibition. For `O=C(NCC(c1cnc(CO)s1)N1CCC(F)(F)CC1)c1cc(-c2ncc(F)cn2)ccc1Cl` (stereo not drawn) [Compound 112], the IC50 in assay [1] amounted to 36 nM; in assay [2] it was 119 nM. As to `O=C(NCC(c1cnco1)N1CCc2ccccc2C1)c1c(F)cccc1Cl` (stereo not drawn) [Compound 48, 2-chloro-6-fluoro-N-[2-(1,3-oxazol-5-yl)-2-(1,2,3,4-tetrahydroisoquinolin-2-yl)ethyl]benzamide], the IC50 in assay [1] is 1070 nM; in assay [2], 541 nM. `O=C(NCC(c1cnco1)N1CCOCC1)c1c(F)cccc1Cl` (stereo not drawn) [Compound 44, 2-chloro-6-fluoro-N-[2-(morpholin-4-yl)-2-(1,3-oxazol-5-yl)ethyl]benzamide]: the IC50 came to 500 nM in assay [1] and 677 nM in assay [2]. `O=C(NCC(c1cscn1)N1CCc2ccccc2C1)c1c(F)cccc1Cl` (stereo not drawn) [Compound 6, 2-chloro-N-[2-(3,4-dihydro-1H-isoquinolin-2-yl)-2-(1,3-thiazol-4-yl)-ethyl]-6-fluoro-benzamide]: the IC50 came to 1260 nM in assay [1] and 800 nM in assay [2].

Consider `CCc1ncc(C(CNC(=O)c2c(F)cccc2Cl)N2CCC(F)(F)CC2)s1` (stereo not drawn) [Compound 85, 2-chloro-N-[2-(4,4-difluoropiperidin-1-yl)-2-(2-ethyl-1,3-thiazol-5-yl)ethyl]-6-fluorobenzamide], for which the IC50 came to 48 nM in assay [1] and 62 nM in assay [2].

In the case of `Cc1cccc(C)c1C(=O)NCC(c1cncs1)N1CCOCC1` (stereo not drawn) [Compound 11, 2,6-dimethyl-N-[2-(morpholin-4-yl)-2-(1,3-thiazol-5-yl)ethyl]benzamide], the IC50 in assay [1] stood at 220 nM; in assay [2], 81 nM. As for `O=C(NCC(c1cscn1)N1CCC(F)(F)CC1)c1c(F)cccc1Cl` (stereo not drawn) [Compound 4, 2-chloro-N-[2-(4,4-difluoropiperidin-1-yl)-2-(1,3-thiazol-4-yl)ethyl]-6-fluorobenzamide], the values for the IC50 in assay [1] and in assay [2] were 3300 nM and 845 nM, respectively. On to `O=C(NCC(c1cscn1)N1CCCOCC1)c1c(F)cccc1Cl` (stereo not drawn) [Compound 7], for which the IC50 in assay [1] came to 1690 nM; in assay [2], 840 nM.

As to `Cc1ncsc1C(CNC(=O)c1cc(-c2ncc(F)cn2)ccc1Cl)N1CCOC2(CCC2)C1` (stereo not drawn) [Compound 93, 2-chloro-5-(5-fluoropyrimidin-2-yl)-N-[2-(4-methyl-1,3-thiazol-5-yl)-2-{5-oxa-8-azaspiro[3.5]nonan-8-yl}ethyl]benzamide], the IC50 worked out at 82 nM in assay [1] and 116 nM in assay [2].

As to `O=C(NCC(c1scnc1C(F)F)N1CCC(F)(F)CC1)c1c(F)cccc1Cl` (stereo not drawn) [Compound 95, 2-chloro-N-{2-[4-(difluoromethyl)-1,3-thiazol-5-yl]-2-(4,4-difluoropiperidin-1-yl)ethyl}-6-fluorobenzamide], the figures for the IC50 in assay [1] and in assay [2] were 82 nM and 54 nM, respectively. With `Cc1cccc(Cl)c1C(=O)NCC(c1cncs1)N1CCC(OCc2ccccc2)CC1` (stereo not drawn) [Compound 24, N-{2-[4-(benzyloxy)piperidin-1-yl]-2-(1,3-thiazol-5-yl)ethyl}-2-chloro-6-methylbenzamide], the IC50 was 44 nM in assay [1] and 111 nM in assay [2]. In the same order, the values of `Cc1ncc(C(CNC(=O)c2c(C)cccc2C)N2CCC(F)(F)CC2)s1` (stereo not drawn) [Compound 40, N-[2-(4,4-difluoropiperidin-1-yl)-2-(2-methyl-1,3-thiazol-5-yl)ethyl]-2,6-dimethylbenzamide] are 18 nM and 30 nM. On to `Cc1cccc(Cl)c1C(=O)NCC(c1cncs1)N1CCOCC1` (stereo not drawn) [Compound 13, 2-chloro-6-methyl-N-[2-(morpholin-4-yl)-2-(1,3-thiazol-5-yl)ethyl]benzamide], for which the concentration for half-maximal inhibition (IC50) came out at 271 nM in assay [1] and 64 nM in assay [2].

Turning to `Cc1cccc(Cl)c1C(=O)NCC(c1cncs1)N1CCc2ccccc2C1` (stereo not drawn) [Compound 19, 2-chloro-6-methyl-N-[2-(1,2,3,4-tetrahydroisoquinolin-2-yl)-2-(1,3-thiazol-5-yl)ethyl]benzamide], the IC50 in assay [1] is 197 nM; in assay [2] it was 104 nM. Take `CCCc1ncc(C(CNC(=O)c2cccc3ncccc23)N2CCC(F)(F)CC2)s1` (stereo not drawn) [Compound 108, N-[2-(4,4-difluoropiperidin-1-yl)-2-(2-propyl-1,3-thiazol-5-yl)ethyl]quinoline-5-carboxamide]: the IC50 came to 77 nM in assay [1] and 199 nM in assay [2].

For the molecule `O=C(NCC(c1cnc(C2CCC2)s1)N1CCC(F)(F)CC1)c1c(F)cccc1Cl` (stereo not drawn) [Compound 110, 2-chloro-N-[2-(2-cyclobutyl-1,3-thiazol-5-yl)-2-(4,4-difluoropiperidin-1-yl)ethyl]-6-fluorobenzamide], the IC50 came out at 46 nM in assay [1] and 119 nM in assay [2]. Regarding `O=C(NCC(c1nccs1)N1CCc2ccccc2C1)c1c(F)cccc1Cl` (stereo not drawn) [Compound 1, 2-chloro-N-[2-(3,4-dihydro-1H-isoquinolin-2-yl)-2-(1,3-thiazol-2-yl)-ethyl]-6-fluoro-benzamide], the values for the IC50 in assay [1] and in assay [2] were 1360 nM and 1020 nM, respectively.

Turning to `COc1cccc(C(=O)NCC(c2cncs2)N2CCC(F)(F)CC2)c1OC` (stereo not drawn) [Compound 21, N-[2-(4,4-difluoropiperidin-1-yl)-2-(1,3-thiazol-5-yl)ethyl]-2,3-dimethoxybenzamide], the IC50 came out at 129 nM in assay [1] and 31 nM in assay [2].

On to `COc1cccc(C(=O)NCC(c2ocnc2C)N2CCc3ccccc3C2)c1OC` (stereo not drawn) [Compound 56, 2,3-dimethoxy-N-[2-(4-methyl-1,3-oxazol-5-yl)-2-(1,2,3,4-tetrahydroisoquinolin-2-yl)ethyl]benzamide], for which the IC50 in assay [1] was 414 nM; in assay [2], 147 nM. Consider `Nc1ccc(Cl)c(C(=O)NCC(c2cncs2)N2CCC(F)(F)CC2)c1` (stereo not drawn) [Compound 16, 5-amino-2-chloro-N-[2-(4,4-difluoropiperidin-1-yl)-2-(1,3-thiazol-5-yl)ethyl]benzamide], for which the IC50 in assay [1] was 98 nM; in assay [2] it was 32 nM. On to `Cc1ncoc1C(CNC(=O)c1c(F)cccc1Cl)N1CCC(F)(F)CC1` (stereo not drawn) [Compound 52, 2-chloro-N-[2-(4,4-difluoropiperidin-1-yl)-2-(4-methyl-1,3-oxazol-5-yl)ethyl]-6-fluorobenzamide], for which the IC50 in assay [1] was 2070 nM.

On to `O=C(NCC(c1cnc(C2CCC(F)(F)CC2)s1)N1CCOCC1)c1c(F)cccc1Cl` (stereo not drawn) [Compound 116, 2-chloro-N-{2-[2-(4,4-difluorocyclohexyl)-1,3-thiazol-5-yl]-2-(morpholin-4-yl)ethyl}-6-fluorobenzamide], for which the IC50 in assay [1] came out at 41 nM; in assay [2] it was 60 nM. In the same order, the values of `Cc1ncsc1C(CNC(=O)c1c(F)cccc1Cl)N1CCC(F)(F)CC1` (stereo not drawn) [Compound 31, 2-chloro-N-[2-(4,4-difluoropiperidin-1-yl)-2-(4-methyl-1,3-thiazol-5-yl)ethyl]-6-fluorobenzamide] are 229 nM and 31 nM.

In the case of `Cc1cccc(C)c1C(=O)NCC(c1scnc1C)N1CCC(F)(F)CC1` (stereo not drawn) [Compound 32, N-[2-(4,4-difluoropiperidin-1-yl)-2-(4-methyl-1,3-thiazol-5-yl)ethyl]-2,6-dimethylbenzamide], the results for the IC50 in assay [1] and in assay [2] were 44 nM and 55 nM, respectively. Take `Cc1ncsc1C(CNC(=O)c1cccc2ncccc12)N1CCOC(c2ccc(F)cc2F)C1` (stereo not drawn) [Compound 99, N-{2-[2-(2,4-difluorophenyl)morpholin-4-yl]-2-(4-methyl-1,3-thiazol-5-yl)ethyl}quinoline-5-carboxamide]: the half-maximal inhibitory concentration (IC50) in assay [1] was 79 nM; in assay [2], 32 nM. `COc1cccc(C(=O)NCC(c2ocnc2C)N2CCOCC2)c1OC` (stereo not drawn) [Compound 53, 2,3-dimethoxy-N-[2-(4-methyl-1,3-oxazol-5-yl)-2-(morpholin-4-yl)ethyl]benzamide] yielded an IC50 in assay [1] of 4900 nM. `O=C(NCC(c1cnco1)N1CCC(F)(F)CC1)c1c(F)cccc1Cl` (stereo not drawn) [Compound 45, 2-chloro-N-[2-(4,4-difluoropiperidin-1-yl)-2-(1,3-oxazol-5-yl)ethyl]-6-fluorobenzamide] yielded an IC50 in assay [1] of 225 nM.
